Test results as given in patent US20240018145A1, “[…]-DEPENDENT EN[…] TREATING OR […]” (priority 2020, published 2024).

Tested on: FLU A (PR/8/34)
Assay: Flu A Neuraminidase Antiviral Assay
Format: cell-based

CN1C(=O)c2c(O)c(=O)ccn2N2C(c3ccccc3)C(c3cccc(F)c3F)CCC12 (single isomer, unassigned) [Compound 116B, 2-(2,3-difluorophenyl)-7-hydroxy-5-methyl-1-phenyl-1,2,3,4,4a,5-hexahydrodipyrido[1,2-b:2′,1′-f][1,2,4]triazine-6,8-dione]
EC50: 6.9 nM

CN1C(=O)c2c(O)c(=O)ccn2N2C1CCC(C)(C)C2(C)c1ccccc1 (single isomer, unassigned) [Compound 35B, 7-hydroxy-1,2,2,5-tetramethyl-1-phenyl-1,2,3,4,4a,5-hexahydrodipyrido[1,2-b:2′,1′-f][1,2,4]triazine-6,8-dione]
EC50: > 8100 nM

Cc1ccc(C2(C)CCCC3N(CC(F)(F)F)C(=O)c4c(O)c(=O)ccn4N32)nc1 (single isomer, unassigned) [Compound 49B, 7-hydroxy-1-methyl-1-(5-methylpyridin-2-yl)-5-(2,2,2-trifluoroethyl)-1,2,3,4,4a,5-hexahydrodipyrido[1,2-b:2′,1′-f][1,2,4]triazine-6,8-dione]
EC50: 26.5 nM

CN1C(=O)c2c(O)c(=O)ccn2N2C1CCC1(CCCC(F)(F)C1)C2c1ccccc1 (single isomer, unassigned) [Compound 75A, 3,3-difluoro-7′-hydroxy-5′-methyl-1′-phenyl-3′,4′,4a′,5′-tetrahydro-1′H-spiro[cyclohexane-1,2′-dipyrido[1,2-b:2′,1′-f][1,2,4]triazine]-6′,8′-dione]
EC50: > 810 nM

Cc1cc(=O)c(O)c2n1N1C(c3ccccc3)C(CC(F)(F)F)CCC1N(C)C2=O (single isomer, unassigned) [Compound 132D, 7-hydroxy-5,10-dimethyl-1-phenyl-2-(2,2,2-trifluoroethyl)-1,2,3,4,4a,5-hexahydrodipyrido[1,2-b:2′,1′-f][1,2,4]triazine-6,8-dione]
EC50: > 810 nM

CCC1(c2ccccc2)CCC2N(C)C(=O)c3c(O)c(=O)ccn3N21 (single isomer, unassigned) [Compound 62D, 1-ethyl-6-hydroxy-4-methyl-1-phenyl-2,3,3a,4-tetrahydro-1H-pyrido[2,1-f]pyrrolo[1,2-b][1,2,4]triazine-5,7-dione]
EC50: 7970 nM

CN1C(=O)c2c(O)c(=O)ccn2N2C(c3ccccc3)C(C3CC3(F)F)CCC12 (single isomer, unassigned) [Compound 105B, 2-(2,2-difluorocyclopropyl)-7-hydroxy-5-methyl-1-phenyl-1,2,3,4,4a,5-hexahydrodipyrido[1,2-b:2′,1′-f][1,2,4]triazine-6,8-dione]
EC50: > 810 nM

COc1ccccc1C1CCCC2N(C)C(=O)c3c(O)c(=O)ccn3N12 (single isomer, unassigned) [Compound 19A, 7-hydroxy-1-(2-methoxyphenyl)-5-methyl-1,2,3,4,4a,5-hexahydrodipyrido[1,2-b:2′,1′-f][1,2,4]triazine-6,8-dione]
EC50: > 8100 nM

CN1C(=O)c2c(O)c(=O)ccn2N2C1CCCC2(C)c1cccc(Cl)c1 (single isomer, unassigned) [Compound 28B, 1-(3-chlorophenyl)-7-hydroxy-1,5-dimethyl-1,2,3,4,4a,5-hexahydrodipyrido[1,2-b:2′,1′-f][1,2,4]triazine-6,8-dione]
EC50: 278 nM

CN1C(=O)c2c(O)c(=O)ccn2N2C1CCC1(CCC(C(F)(F)F)CC1)C2c1ccccc1 (single isomer, unassigned) [Compound 73B, 7′-hydroxy-5′-methyl-1′-phenyl-4-(trifluoromethyl)-3′,4′,4a′,5′-tetrahydro-1′H-spiro[cyclohexane-1,2′-dipyrido[1,2-b:2′,1′-f][1,2,4]triazine]-6′,8′-dione]
EC50: > 810 nM

CN1C(=O)c2c(O)c(=O)ccn2N2C(c3c(F)cccc3F)C(CC(F)(F)F)CCC12 (single isomer, unassigned) [Compound 123C, 1-(2,6-difluorophenyl)-7-hydroxy-5-methyl-2-(2,2,2-trifluoroethyl)-1,2,3,4,4a,5-hexahydrodipyrido[1,2-b:2′,1′-f][1,2,4] triazine-6,8-dione]
EC50: > 8100 nM
